The results in this text go back to patent publication US8258114B2, “Modulation of glucose-6-phosphatase translocase expression” (Isis Pharmaceuticals, Inc., priority 2004, dated 2012).

The test system of series [1] is mouse glucose-6-phosphatase translocase mRNA. Nature of the series: Antisense inhibition of mouse glucose-6-phosphatase translocase mRNA in primary mouse hepatocytes, 50 nM (Table 5). The format is cell-based. The settings on record: 50 nM oligonucleotide, mRNA by real-time PCR, normalized with RIBOGREEN
On the technique in general: In qPCR the cycle at which signal appears reflects the starting amount.

Series [2] deals with glucose-6-phosphatase translocase mRNA. The series is described as follows: Target mRNA reduction in liver of lean ob/ob+/- mice. The settings on record: 50 mg/kg s.c. twice weekly, five doses. The format is in vivo, mouse. On the procedure:
(§1) Ob/ob mice have a mutation in the leptin gene which results in obesity and hyperglycemia. […] Seven-week old ob/ob+/−male mice were dosed twice weekly with 50 mg/kg of antisense oligonucleotide, given subcutaneously. A total of five doses were given. glucose-6-phosphatase translocase antisense oligonucleotides used were ISIS 148985 (SEQ ID NO: 118) and ISIS 149008 (SEQ ID NO: 141). Each treatment group was comprised of 4 animals. Animals were sacrificed 48 hours after the last dose of oligonucleotide was administered, and liver triglycerides, liver glycogen content, and target reduction in liver were measured.
Glucose-6-phosphatase translocase mRNA levels in liver were measured at the end of study using RiboGreen™ RNA quantification reagent (Molecular Probes, Inc. Eugene, Oreg.) as taught in previous examples above.
Glucose-6-phosphatase translocase mRNA levels were reduced by approximately 51% in lean mice treated with ISIS 148985, and by approximately 88% in lean mice treated with ISIS 149008, when compared to saline treatment. Thus the antisense compounds ISIS 149008 and ISIS 148985 were effective in reducing liver glucose-6-phosphatase translocase mRNA levels in vivo.

Series [3] is described as follows: Liver triglycerides and liver glycogen in lean ob/ob+/- mice. The format is in vivo, mouse. The note with it: 50 mg/kg s.c. twice weekly, five doses; for Liver glycogen levels: saline approximately 37. The method, then: as §1
Liver triglyceride levels are used to assess hepatic steatosis, or accumulation (poor clearing) of lipids in the liver. Tissue triglyceride levels were measured using a Triglyceride GPO assay from Roche Diagnostics (Indianapolis, Ind.). Liver triglycerides were about 19 mg/dL for saline treated lean mice and were about 14 mg/dL for ISIS 149008-treated lean mice.
Tissue glycogen was measured using the Glucose Trinder Reagent (Sigma-Aldrich, St. Louis, Mo.). Glycogen levels of lean mice treated with saline alone were approximately 37 mg/g of tissue. Mice treated with ISIS 149008 or 148985, the antisense inhibitors of glucose-6-phosphatase translocase, had glycogen levels of approximately 39 mg/g and 36 mg/g, respectively.

For series [4], the system named is glucose-6-phosphatase translocase mRNA. Nature of the series: Target reduction in liver: rat dose-response study (Table 12). The format is in vivo. The settings on record: Sprague-Dawley rats; for % Inhibition, target reduction in liver: three weeks. The method, then:
Each treatment group was comprised of 4 animals.
At the end of the treatment period, animals were sacrificed and target reduction in liver was measured by real-time PCR as described in other examples herein. Results are shown in Table 12 as the average percent reduction in glucose-6-phosphatase translocase levels as compared to saline treated control.

Series [5] can be described thus: Plasma glucose levels of ZDF rats, alone or in combination with rosiglitazone (Table 16). The format is in vivo, rat. The settings on record: alone or with Rosi. The method, then: (§2) Saline-injected animals served as a control treatment group.
(§3) Plasma glucose levels were evaluated at the beginning of the study (Wk 0), during the first week of treatment (Wk 1), during the third week of treatment (Wk 3), and during the fifth week of treatment (Wk 5).

Another series concerns aged Zucker fa/fa rats. The description is as above. The format is in vivo, rat. On the procedure:
as §2, §3

For “GCTCCATAGCGAGGACTCGA (chemistry not given here) [ISIS 148985]”, the results for the “% Inhib” value in series [1] and in series [1] (listed as 148985) were “approximately 84%” and 84%, respectively. The “Glucose-6-phosphatase translocase mRNA levels in liver, reduction compared to saline” value in series [2] is “approximately 51%”. In addition, in series [3], the Liver glycogen levels is listed as around 36 mg/g.

As to “GTGCTTGGCGATGGTACTGA (chemistry not given here) [ISIS 366228]”, the “% Inhibition, target reduction in liver” value in series [4] (12.5 mg/kg twice weekly) was 69%; in series [4] (25 mg/kg twice weekly), 82%; in series [4] (50 mg/kg twice weekly) it was 90%. In addition, in series [4] (12.5 to 50 mg/kg), the “target mRNA levels in rat liver (in words)” value is reported as “effective in reducing target mRNA levels in rat liver in a dose-dependent manner”. For the same sequence, the Plasma glucose in series [5] (ISIS 366228 12.5 mg/kg, Wk 0, saline 571) is listed as 570 mg/dL; in series [5] (ISIS 366228 12.5 mg/kg, Wk 1, saline 549), 549 mg/dL; in series [5] (ISIS 366228 12.5 mg/kg, Wk 3, saline 552), 547 mg/dL; in series [5] (ISIS 366228 12.5 mg/kg, Wk 5, saline 536) it was 532 mg/dL; in series [5] (ISIS 366228 25 mg/kg, Wk 0) it was 569 mg/dL; in series [5] (ISIS 366228 25 mg/kg, Wk 1) it was 542 mg/dL. Further, the Plasma glucose worked out at 507 mg/dL in series [5] (ISIS 366228 25 mg/kg, Wk 3) and 488 mg/dL in series [5] (ISIS 366228 25 mg/kg, Wk 5). The “plasma glucose over the course of the study (in words)” value in the series on aged Zucker fa/fa rats was “caused reductions in plasma glucose”.

In the case of “TATACAAGTCGGTTTGCCCT (chemistry not given here) [ISIS 149008]”, in series [1], the “% Inhib” value is reported as around 65%. Besides, the “Glucose-6-phosphatase translocase mRNA levels in liver, reduction compared to saline” value in series [2] was “approximately 88%”. For the same sequence, the Liver Triglycerides result in series [3] (saline about 19) is “about 14 mg/dL”. Besides, in series [3], the Liver glycogen levels entry is “approximately 39 mg/g”.
